# Assay results reported in US20100034839A1, “METHODS FOR TREATING VIRAL DISORDERS” (priority 2008, published 2010).
# Columns and labels:
# [1] = tested on: cell surface CLIP on Raji and Daudi cells; test: Competition of synthetic peptides with cell surface CLIP (Fitc anti-human CLIP); format: cell-based; settings: biotinylated competing peptide
# Excerpt: Based on a computational model comparing the peptide content of TNP mixture and identifying those peptides that would have the likeliest ability to compete for the peptide/antigen binding site for MHC class II (human HLA-DR, DP, and DQ), several peptide candidates were synthesized and examined for activity. The purpose of the study was to determine if synthetic peptides can compete for binding with CLIP peptides as measured with either Fitc anti-human CLIP antibody or, comparatively in the case of biotinylated peptides, with Streptavidin.
# Cell Culture Conditions: The Raji and Daudi cell lines were purchased from American Type Culture Collection, were thawed, and grown in RPMI 1640 medium supplemented with standard supplements, including 10% fetal calf serum, gentamycin, penicillin, streptomycin, sodium pyruvate, HEPES buffer, 1-glutamine, and 2-ME.
# Protocol: Cells were plated into a 12 well plate with 3 mls total volume containing approximately 1.5×10^6/well for Daudi cells and 3.0×10^6/well for Raji cells. Treatment groups included no treatment as control; MKN 3 and MKN 5 at 50 microMolar final concentration based on the reported molarity of the synthesized compounds.
# The cells were incubated at 37° C. in an atmosphere containing 5% CO2 and approximately 92% humidity. The cells were incubated for 4 and 24 hours. At each time point, the cells from that experimental time were harvested and stained for flow cytometric analysis of cell surface expression of CLIP (MHC Class II invariant peptide, human) by using the commercially available (Becton/Dickinson/PHarmingen) anti-human CLIP Fitc. Catalogue #555981 versus Streptavidin.
# Harvested cells were stained using standard staining procedure that called for a 1:100 dilution of Fitc-anti-human CLIP or isotype control versus 1:200 dilution of the commercially prepared Streptavidin. Following staining on ice for 25 minutes, cells were washed with PBS/FCS and resuspended in 100 microliters and added to staining tubes containing 400 microliters of PBS. Samples were acquired and analyzed on a Coulter Excel Flow Cytometer.
# In the Histogram analyses of FIGS. 5-7 the Y axis represents cell number of the 5000 live cells versus the X axis which is a reflection of relative Fitc fluorescence versus Streptavidin-PE (eBioscience, Cat. #12-4317) that will bind with high affinity to cell-bound biotinylated peptides. The distance between the histogram from the isotype control staining versus the histogram reflecting the specific stain and is a measure of level of cell surface CLIP or the biotinylated peptide when stained with Streptavidin on a population of live Raji or Daudi cells as indicated.
# [2] = tested on: CLIP^+ B cells in human PBMC; test: Peptide replacement of CLIP on R848-activated human PBMC B cells; format: cell-based; settings: PBMC of two donors cultured with R848 for 48 hours with peptide
# Description: FIG. 13 depicts TLR activation results in ectopic CLIP expression on human B cells from peripheral blood mononuclear cells (PBMC) cultures. FIG. 13a: human PBMC from five donors were cultured for 24 hours with toll ligands (CpG-ODN, LPS, Pam3Cys, and Poly I:C) and were stained with a pan anti-HLA-DR-FITC antibody (values of isotype controls were subtracted from the specific stains, ΔMFI). FIG. 13b: cells were stained using anti-human CLIP-FITC versus CD19-PE (values of isotype controls were subtracted from the specific stains, ΔMFI). For FIGS. 13a & 13b: nil vs. CpG p=0.06821; nil vs. LPS p=0.0390; nil vs. PAM p=0.0124. FIG. 13c: cells were stained for CLIP-FITC versus CD19-PE as described for FIG. 13b. The data represent the percent of total PBMC that are CLIP+ B cells subsequent to treatment. For FIG. 13c: nil vs. CpG p=0.0058; nil vs. LPS p=0.0254. […]
# PBMC were prepared from a total of seven adult normal donors, five for examining the effects of TLR binding on the percentage of ectopic CLIP^+ B cells and changes in mean fluorescence intensity of the CLIP staining resulting from TLR stimulation with CpG-ODN, LPS, Pam-3-Cys, and Poly I:C. […] Cells were analyzed using either a BD FacsCalibur, for the five samples, or a Coulter FC500 for the two tissue typed samples. […]
sequence,measurement,setting,value
FRIMAVLAS,cell surface bound CLIP,[1]; 4 hours,small decreases in cell surface bound CLIP
same,cell surface bound CLIP,[1]; 24 hours,significant decreases
same,percentage of CLIP^+ B cells and level of CLIP per B cell,[2],reduced the percentage of CLIP^+ B cells and the level of CLIP per B cell to pre-treatment levels
